Results from US20250235422A1 (BiomEdit, Inc., priority 2024, published 2025).
“Also recorded” adds a separate entry of the source. Where two headings read alike, the source gives them in different places.

How the values were obtained:
AHR = target: T1, AHR (Homo sapiens, UniProt P35869); conditions: cited from earlier work
T1 sequence (P35869 11-848): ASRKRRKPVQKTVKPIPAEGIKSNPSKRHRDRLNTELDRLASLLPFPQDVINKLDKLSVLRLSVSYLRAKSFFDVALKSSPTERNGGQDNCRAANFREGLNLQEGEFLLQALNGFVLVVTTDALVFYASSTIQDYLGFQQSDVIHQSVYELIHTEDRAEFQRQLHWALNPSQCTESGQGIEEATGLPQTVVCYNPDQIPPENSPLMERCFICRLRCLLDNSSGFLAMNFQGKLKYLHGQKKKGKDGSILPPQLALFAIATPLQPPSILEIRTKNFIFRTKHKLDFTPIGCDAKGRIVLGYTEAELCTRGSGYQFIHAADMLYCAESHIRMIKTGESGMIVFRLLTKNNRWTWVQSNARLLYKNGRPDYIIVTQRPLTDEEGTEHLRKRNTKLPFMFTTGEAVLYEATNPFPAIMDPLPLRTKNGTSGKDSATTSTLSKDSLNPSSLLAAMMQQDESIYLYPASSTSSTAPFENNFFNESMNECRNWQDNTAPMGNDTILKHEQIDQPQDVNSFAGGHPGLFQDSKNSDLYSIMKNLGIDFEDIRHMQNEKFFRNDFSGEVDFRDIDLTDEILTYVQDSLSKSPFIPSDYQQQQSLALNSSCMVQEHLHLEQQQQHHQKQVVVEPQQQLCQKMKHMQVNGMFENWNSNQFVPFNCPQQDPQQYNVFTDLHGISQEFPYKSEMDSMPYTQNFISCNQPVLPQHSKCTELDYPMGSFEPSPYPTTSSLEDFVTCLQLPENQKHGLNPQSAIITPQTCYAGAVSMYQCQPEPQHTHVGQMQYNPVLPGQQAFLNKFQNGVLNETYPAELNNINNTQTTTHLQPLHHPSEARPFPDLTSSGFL

[1] = Light stability and hydrophobicity observed during development; type: physicochemical; conditions: light exposure
psoriasis and AD = conditions: humans; cited from earlier work
[2] = AHR ligand activity, Table 1 reproduced from Barroso A et al., 2021

Row | SMILES | Activity (AHR; [2]) | other results
1 | CCCCC/C=C\C[C@@H](O)/C=C/C=C\C/C=C\CCCC(=O)O | Agonist | 
2 | O=C(O)c1cc(O)c2ccccc2c1O [1,4-dihydroxy-2-naphthoic acid (DHNA), 1,4-dihydroxy-2-naphthoic acid] | Agonist | 
3 | Clc1cc2c(cc1Cl)Oc1cc(Cl)c(Cl)cc1O2 [2,3,7,8-Tetrachlorodibenzop-dioxin] | Agonist | 
4 | COC(=O)c1csc(C(=O)c2c[nH]c3ccccc23)n1 [2-(19H-indole-39-carbonyl)-thiazole-4-carboxylic acid methyl ester] | Agonist | 
5 | c1ccc2c(Cc3[nH]c4ccccc4c3Cc3c[nH]c4ccccc34)c[nH]c2c1 [2-(Indol-3-ylmethyl)-3,39-diindolylmethane] | Agonist | 
6 | c1ccc2c(Cc3c[nH]c4ccccc34)c[nH]c2c1 [3,3-diindolylmethane (DIM), 3,3-diindolylmethane] | Agonist | 
7 | Cc1ccc2cc3c(ccc4ccccc43)c3c2c1CC3 [3-Methylcholanthrene] | Agonist | 
8 | Cc1c[nH]c2ccccc12 [3-Methylindole (Skatole), 3-Methylindole] | Partial | 
9 | COc1ccc(-c2cc(=O)c3ccccc3o2)cc1OC [3′4′-Dimethoxyflavone] | Partial | 
10 | COc1cc(-c2cc(=O)c3ccccc3o2)ccc1[N+](=O)[O-] [3′-methoxy-4′-nitroflavone (MNF), 3′-methoxy-4′-nitroflavone] | Antagonist | 
11 | N[C@@H](Cc1c[nH]c2ccc(O)cc12)C(=O)O [5-hydroxytryptophan (5HTP), 5-hydroxytryptophan] | Agonist | 
12 | O=Cc1c2c(cc3c1=Nc1ccccc1-3)=Nc1ccccc1-2 [6-Formylindolo [3,2-b] carbazole (FICZ), 6-Formylindolo [3,2-b] carbazole] | Agonist | 
13 | Cc1cc(Cl)cc2c1oc1cc(Cl)cc(Cl)c12 [6-Methyl-1,3,8-trichlorodibenzofuran] | Partial | 
14 | CC(C)c1cnn2c(N[C@@H]3CCc4[nH]c5ccccc5c4C3)nc(-c3cncc(F)c3)nc12 [AHR antagonist 5 (IK-775)] | Antagonist | 
15 | O=C(O)[C@H]1O[C@@H](Oc2cc3oc(-c4ccccc4)cc(=O)c3c(O)c2O)[C@H](O)[C@@H](O)[C@@H]1O [Baicalin] | AntAgonist | 
16 | O=c1cc(-c2ccccc2)oc2ccc3ccccc3c12 [Beta-naphthoflavone] | Agonist | 
17 | C=CC1=C(C)/C(=C/C2=NC(=C\c3[nH]c(/C=C4\NC(=O)C(C)=C4C=C)c(C)c3CCC(=O)O)/C(CCC(=O)O)=C2C)NC1=O [Biliverdin] | Agonist | 
18 | Cc1ccccc1N=Nc1ccc(NC(=O)c2ccnn2C)c(C)c1 [CH-223191] | AntAgonist | 
19 | Nc1c(C(=O)O)c2nc3c(C(=O)O)cccc3oc-2cc1=O [Cinnabarinic acid (CA), Cinnabarinic acid] | Agonist | 
20 | CC=CC=CC=CC=CC=CC(=O)O [DDPA, dodeca-2,4,6,8,10-pentaenoic acid] |  | photostability [1]: photolabile; also recorded: photodecomposition leads to a loss of potency

Row | SMILES | Activity (AHR; [2]) | other results
21 | O=C(O)Cc1ccccc1Nc1c(Cl)cccc1Cl [Diclofenac] |  | Activity (AHR): Agonist
22 | N#CCc1c[nH]c2ccccc12 [Indole-3-acetonitrile (IAN), Indole-3-acetonitrile] | Agonist | 
23 | O=Cc1c[nH]c2ccccc12 [Indole-3-aldehyde (I3CA), Indole-3-aldehyde] | Agonist | 
24 | OCc1c[nH]c2ccccc12 [Indole-3-carbinol (I3C), Indole-3-carbinol] | Agonist | 
25 | c1ccc2[nH]ccc2c1 [Indole] |  | Activity (AHR): Agonist
26 | c1ccc2c(c1)N=c1cc3c(cc1-2)=Nc1ccccc1-3 [Indolo [3,2-b]carbazole (ICZ), Indolo [3,2-b]carbazole] | Agonist | 
27 | O=S(=O)(O)Oc1c[nH]c2ccccc12 [Indoxyl-3-sulfate (I3S), Indoxyl-3-sulfate] | Agonist | 
28 | Nc1ccccc1C(=O)C[C@H](N)C(=O)O [L-Kynurenine (Kyn), L-Kynurenine] | Agonist | 
29 | CCCCC[C@H](O)/C=C/C=C\C=C\C=C\[C@@H](O)[C@@H](O)CCCC(=O)O [Lipoxin A4] | Agonist | 
30 | O=Cc1c(Cc2c[nH]c3ccccc23)[nH]c2ccccc12 [Malassezin] | Agonist | 
31 | COc1cc2c(cc1O)C[C@@H]1NCCc3cc(OC)c(O)c-2c31 [Norisoboldine] | Agonist | 
32 | O=c1c(O)c(-c2ccc(O)c(O)c2)oc2cc(O)cc(O)c12 [Quercetin] | Partial | 
33 | CC(C)n1cnc2c(NCCc3ccc(O)cc3)nc(-c3csc4ccccc34)nc21 [StemRegenin 1 (SR1), StemRegenin 1] | AntAgonist | 
34 | CC1=C(CC(=O)O)c2cc(F)ccc2/C1=C\c1ccc([S+](C)[O-])cc1 (stereo not shown) [Sulindac] | Agonist | 
35 | CC(C)c1c(O)cc(/C=C/c2ccccc2)cc1O [Tapinarof, 3,5-dihydroxy-4-isopropyl-trans-stilbene] | Agonist | effectiveness for treatment of psoriasis and AD (psoriasis and AD): effective
36 | NCCc1c[nH]c2ccccc12 [Tryptamine] | Agonist | 
37 | O=C1c2ccccc2-n2c1nc1ccccc1c2=O [Tryptanthrin] | Agonist | 
38 | FC(F)(F)c1ccc(Nc2nccc(-c3cccc(Cl)c3)n2)cc1 [VAF347] | Agonist | 
39 | O=C(O)c1cc(O)c2cccc(O)c2n1 [Xanthurenic acid] | Agonist | 
